Assay [1] deals with T1, recombinant human Caspase-1 (Homo sapiens, UniProt P29466).
T1 construct: purchased Enzo life science
T1 sequence (P29466 120-297 limits assumed): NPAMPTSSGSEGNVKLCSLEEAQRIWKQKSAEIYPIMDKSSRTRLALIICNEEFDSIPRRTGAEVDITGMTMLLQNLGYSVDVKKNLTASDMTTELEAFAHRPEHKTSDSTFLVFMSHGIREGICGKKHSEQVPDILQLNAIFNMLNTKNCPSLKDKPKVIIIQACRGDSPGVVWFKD
T1 sequence (P29466 317-404 limits assumed): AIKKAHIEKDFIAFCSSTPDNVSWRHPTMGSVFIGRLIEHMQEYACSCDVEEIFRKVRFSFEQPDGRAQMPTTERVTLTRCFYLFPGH
As to the kind of experiment: Caspase-1 inhibitory activity, fluorescent substrate Ac-YVAD-AFC. The format is biochemical. The gist of the method:
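Inactivation kinetics with 1 unit enzyme and 50 μM Ac-YVAD-AFC in 50 mM HEPES pH 8.0, 50 mM KCl, 200 mM NaCl, 10 mM DTT, 0.1% CHAPS, at various compound concentrations. Rate followed over time at Ex/Em 400/505 nm. kobs/[I] binned: A ≥20, B 10–<20, C 1–<10, D <1.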

The test system of assay [2] is Secreted IL-1β in THP-1 cells. As to the kind of experiment: Interleukin-1β inhibitory activity in human monocytic cells THP-1 (ELISA). The class given is cell-based. Conditions: compound 100 nM, PMA-differentiated THP-1, LPS 10 μg/ml then 5 mM ATP, 24 h. In a few lines:
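THP-1 cells were differentiated with 1 μM PMA for 24 h, primed with 10 μg/ml LPS in serum-free medium for 24 h, then given compound at 100 nM for 1 h before 5 mM ATP for 24 h. Secreted IL-1β was measured by ELISA, and inhibition was binned a ≥50%, b 30–<50%, c 10–<30%, d <10%.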

The test system of the next assay is Jurkat cells. As to the kind of experiment: Apoptosis inhibition activity in human T-lymphocyte cells Jurkat (anti-FAS antibody, intracellular ATP). The format is cell-based. The note with it: compound 50 nM, 1 μg/ml anti-FAS antibody 24 h, ATP luminescence. How it is done:
To evaluate the effect of the compound of the present invention on apoptosis, Jurkat (ATCC) cells were treated with anti-FAS antibody CH-11 (Merck) to induce apoptosis via the Fas (CD95) receptor, which was assessed by the amount of intracellular ATP.
Jurkat cells were cultured in RPMI 1640 growth medium comprising 10% FBS and antibiotics (100 U/ml Penicillin, 0.1 mg/ml Streptomycin) under 37° C., 5% CO2 conditions. Cultured cells were seeded in growth medium to a concentration of 8×10^4 cells/well in 96-well plates (SPL), pretreated with compound at a concentration of 50 nM for 1 hour, and then treated with 1 μg/ml anti-FAS antibody for 24 hours in an incubator. After 24 h, an ATP lite Luminescence assay kit (PerkinElmer) was used to measure ATP and luminescence was measured at 580 nm using a CLARIOstar Plus spectrometer. If the inhibitory activity is 30% or more, it is denoted as a′, if it is 20% or more but less than 30%, it is denoted as b′, if it is 10% or more but less than 20%, it is denoted as c′, and if it is less than 10%, it is denoted as d′.

Where [3] appears, read: pH 8, 1 unit recombinant human Caspase-1, 50 μM Ac-YVAD-AFC, read-out: kobs/[I] Caspase-1.
[4] abbreviates: pH 8, read-out: kobs/[I] Caspase-1.

Where two headings read alike, the source gives them in different places.

Broadly, the inhibition is the relative decrease from the control value, in per cent. Higher therefore signals strong suppression. Consider `CC[C@@H](C(=O)N[C@@H](CC(=O)O)C(=O)COc1c(F)c(F)cc(F)c1F)N1Cc2ccc(-c3coc4ccccc34)cc2C1=O` [Compound 50, (S)-3-((S)-2-(6-(benzofuran-3-yl)-1-oxoisoindolin-2-yl)butanamido)-4-oxo-5-(2,3,5,6-tetrafluorophenoxy)pentanoic acid], for which the kinact/KI in assay [1] (setting [3]) lay in the range of 0.167 to 0.333 M⁻¹ s⁻¹. The inhibition at 0.1 µM in assay [2] is ≥ 50%. Besides, the inhibition at 0.05 µM in the assay on Jurkat cells is ≥ 30%.

Regarding `CC[C@@H](C(=O)N[C@@H](CC(=O)O)C(=O)COc1c(F)c(F)cc(F)c1F)N1Cc2ccc(-c3ccc4c(c3)OCCO4)cc2C1=O` [Compound 51, (S)-3-((S)-2-(6-(2,3-di hydrobenzo[b][1,4]dioxin-6-yl)-1-oxoisoindolin-2-yl)butanamido)-4-oxo-5-(2,3,5,6-tetrafluorophenoxy)pentanoic], the kinact/KI in assay [1] (setting [3]) is 0.167 to 0.333 M⁻¹ s⁻¹. This compound displayed an inhibition at 0.1 µM in assay [2] of 30 to 50%. The inhibition at 0.05 µM with Jurkat cells lay within 20 to 30%.

With `CC[C@@H](C(=O)N[C@@H](CC(=O)O)C(=O)COc1c(F)c(F)cc(F)c1F)N1Cc2ccc(-c3ccc4[nH]c(=O)[nH]c4c3)cc2C1=O` [Compound 52, (S)-4-oxo-3-((S)-2-(1-oxo-6-(2-oxo-2,3-dihydro-1H-benzo[d]imidazol-5-yl)isoindolin-2-yl)butanamido)-5-(2,3,5,6-tetrafluorophenoxy)pentanoic acid], the kinact/KI in assay [1] (setting [4]) was > 0.333 M⁻¹ s⁻¹. This compound showed an inhibition at 0.1 µM in assay [2] of 10 to 30%. For the same compound, in the assay with Jurkat cells, the inhibition at 0.05 µM lay in the range of 10 to 20%.

For the compound `CC[C@@H](C(=O)N[C@H](CC(=O)O)C(=O)COc1c(F)c(F)cc(F)c1F)N1Cc2ccc(-c3ccc4c(c3)OCCO4)cc2C1=O` [Compound 54, (R)-3-((S)-2-(6-(2,3-dihydrobenzo[b][1,4]dioxin-6-yl)-1-oxoisoindolin-2-yl)butanamido)-4-oxo-5-(2,3,5,6-tetrafluorophenoxy)pentanoic acid], the kinact/KI in assay [1] (setting [3]) is 0.0167 to 0.167 M⁻¹ s⁻¹. This compound also returned an inhibition at 0.1 µM in assay [2] of 30 to 50%. Besides, the inhibition at 0.05 µM in the assay on Jurkat cells is < 10%.

Consider `CC[C@@H](C(=O)NC(CC(=O)O)C(=O)CF)N1Cc2ccc(-c3ccc4c(c3)OCCO4)cc2C1=O` (stereo partly drawn) [Compound 55, 3-((S)-2-(6-(2,3-dihydrobenzo[b][1,4]dioxin-6-yl)-1-oxoisoindolin-2-yl)butanamido)-5-fluoro-4-oxopentanoic acid], for which the kinact/KI in assay [1] (setting [3]) lay within 0.0167 to 0.167 M⁻¹ s⁻¹. The compound also came in with an inhibition at 0.1 µM in assay [2] of 30 to 50%. Besides, the inhibition at 0.05 µM in the assay with Jurkat cells is ≥ 30%.

With `CC[C@@H](C(=O)NC(CC(=O)O)C(=O)CF)N1Cc2ccc(-c3ccc4[nH]c(=O)[nH]c4c3)cc2C1=O` (stereo partly drawn) [Compound 56, 5-fluoro-4-oxo-3-((S)-2-(1-oxo-6-(2-oxo-2,3-dihydro-1H-benzo[d]imidazol-5-yl)isoindolin-2-yl)butanamido)pentanoic acid], the kinact/KI in assay [1] (setting [3]) is 0.167 to 0.333 M⁻¹ s⁻¹. The inhibition at 0.1 µM in assay [2] was ≥ 50%. For the same compound, the inhibition at 0.05 µM in the assay with Jurkat cells was < 10%.

On to `CC[C@@H](C(=O)NC(CC(=O)O)C(=O)CF)N1Cc2cc(-c3coc4ccccc34)ccc2C1=O` (stereo partly drawn) [Compound 57, 3-((S)-2-(5-(benzofuran-3-yl)-1-oxoisoindolin-2-yl)butanamido)-5-fluoro-4-oxopentanoic acid], for which, in assay [1] (setting [4]), the kinact/KI was 0.0167 to 0.167 M⁻¹ s⁻¹. For the same compound, the inhibition at 0.1 µM in assay [2] is 10 to 30%. Besides, the inhibition at 0.05 µM with Jurkat cells was in the range of 20 to 30%.

On to `CC[C@@H](C(=O)NC(CC(=O)O)C(=O)CF)N1Cc2cc(-c3ccc4c(c3)OCCO4)ccc2C1=O` (stereo partly drawn) [Compound 58, 3-((S)-2-(5-(2,3-dihydrobenzo[b][1,4]dioxin-6-yl)-1-oxoisoindolin-2-yl)butanamido)-5-fluoro-4-oxopentanoic acid], for which the kinact/KI in assay [1] (setting [4]) was in the range of 0.0167 to 0.167 M⁻¹ s⁻¹. For the same compound, the inhibition at 0.1 µM in assay [2] was 10 to 30%. Besides, the inhibition at 0.05 µM in the assay with Jurkat cells was 10 to 20%.

Source of the values: patent US20250109135A1, “NOVEL ISOINDOLINONE DERIVATIVE COMPOUNDS AS CASPASE INHIBITORS” (INNOVO THERAPEUTICS INC., priority 2022, published 2025).
